Measurements published in ChEMBL document CHEMBL1201862, “PubChem BioAssay data set” (2004).
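Growth conditions: 96-well plates. Treatment: test compound, 48 hours, 5 concentrations. Analysis: linear interpolation between bracketing concentrations; unreached endpoints set to highest concentration. GI50: concentration for 50% inhibition of growth.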 The source made the active and inactive calls. No stated cut-off is given here; in the data, active = GI50 up to about 1.1 µM and inactive = higher.

Tests used:
Test in all cases: NCI anticancer screen, dose series, 48 h
786-0 = system: 786-0
EKVX = system: EKVX
OVCAR-4 = system: OVCAR-4
K562 = system: K562
SF-295 = system: SF-295
U-251 = system: U-251
SK-OV-3 = system: SK-OV-3
HL-60 = system: HL-60
HCT-15 = system: HCT-15
Malme-3M = system: Malme-3M
A549 = system: A549
SR = system: SR
HCC 2998 = system: HCC 2998
HOP-92 = system: HOP-92
UACC-62 = system: UACC-62
ACHN = system: ACHN
NCI-H460 = system: NCI-H460

SMILES	GI50 (786-0)	GI50 (EKVX)	GI50 (OVCAR-4)	GI50 (K562)	GI50 (SF-295)	GI50 (U-251)	GI50 (SK-OV-3)	GI50 (HL-60)	GI50 (HCT-15) [µM]	GI50 (Malme-3M)	GI50 (A549)	GI50 (SR)	GI50 (HCC 2998)	GI50 (HOP-92)	GI50 (UACC-62)	GI50 (ACHN)	GI50 (NCI-H460)
O=C1NC(=O)C(C(=O)C(=O)Nc2ccc(Br)cc2)C(=O)N1	> 100 µM (inactive)	> 100 µM (inactive)	> 100 µM (inactive)	> 100 µM (inactive)	> 100 µM (inactive)	> 100 µM (inactive)	> 100 µM (inactive)	> 100 µM (inactive)	> 100	> 100 µM (inactive)	> 100 µM (inactive)	> 100 µM (inactive)	> 100 µM (inactive)	> 100 µM (inactive)	> 100 µM (inactive)	> 100 µM (inactive)	
CCOC(=O)C1=C(C(=O)OCC)C2(c3ccccc3)N(O1)c1ccccc1C2(C)C (stereo not drawn)	75.7 µM (inactive)	45.4 µM (inactive)	18.7 µM (inactive)	42.7 µM (inactive)	45.5 µM (inactive)	34 µM (inactive)	30.1 µM (inactive)	22.7 µM (inactive)		52.2 µM (inactive)	45.5 µM (inactive)		93.1 µM (inactive)		36.5 µM (inactive)		39.5 µM (inactive)
c1ccc(SC2CCSc3ccccc3C2Sc2ccccc2)cc1 (stereo not drawn)	> 100 µM (inactive)	> 100 µM (inactive)	> 100 µM (inactive)	> 100 µM (inactive)	35.2 µM (inactive)	> 100 µM (inactive)	> 10 µM (inactive)	4.73 µM (inactive)	> 100		> 100 µM (inactive)		> 100 µM (inactive)	18.8 µM (inactive)	> 10 µM (inactive)	> 100 µM (inactive)	> 100 µM (inactive)
C=CC[P@]1(=O)O[C@H](c2ccccc2)C(C)N1C(C)C (stereo partly drawn)	> 100 µM (inactive)	> 100 µM (inactive)		> 100 µM (inactive)	> 100 µM (inactive)	> 100 µM (inactive)	> 100 µM (inactive)	> 100 µM (inactive)	> 100	> 100 µM (inactive)	> 100 µM (inactive)	> 100 µM (inactive)	> 100 µM (inactive)	> 100 µM (inactive)	> 100 µM (inactive)	> 100 µM (inactive)	> 100 µM (inactive)
CCN(CC)CC(=O)Nc1ccc2c(c1)C(=O)c1ccc(NC(=O)CN(CC)CC)cc1C2=O	18.9 µM (inactive)	89.3 µM (inactive)	39.1 µM (inactive)	24.7 µM (inactive)	39 µM (inactive)	21.6 µM (inactive)	22.9 µM (inactive)	18.8 µM (inactive)	36.4		27.9 µM (inactive)	18.1 µM (inactive)	> 100 µM (inactive)	85.3 µM (inactive)	73.8 µM (inactive)	25.5 µM (inactive)	14.1 µM (inactive)
CCOC(=O)C(Cc1ccccc1)NC(=O)OC(C)(C)C (stereo not drawn)	> 100 µM (inactive)			> 100 µM (inactive)	> 100 µM (inactive)	> 100 µM (inactive)	> 100 µM (inactive)	> 100 µM (inactive)	> 100	> 100 µM (inactive)	> 100 µM (inactive)		> 100 µM (inactive)	> 100 µM (inactive)	> 100 µM (inactive)	> 100 µM (inactive)	> 100 µM (inactive)
C=CC(=O)NCNC(=O)C=C	> 100 µM (inactive)	> 100 µM (inactive)	> 100 µM (inactive)	> 100 µM (inactive)	> 100 µM (inactive)	> 100 µM (inactive)	> 100 µM (inactive)	> 100 µM (inactive)	> 100	> 100 µM (inactive)	> 100 µM (inactive)	> 100 µM (inactive)	> 100 µM (inactive)	> 100 µM (inactive)	> 100 µM (inactive)	> 100 µM (inactive)	> 100 µM (inactive)
CC(C)(C)C[P+](C)(C)c1ccccc1	> 100 µM (inactive)	> 100 µM (inactive)	> 100 µM (inactive)	34.4 µM (inactive)	> 100 µM (inactive)	> 100 µM (inactive)	> 100 µM (inactive)	67.1 µM (inactive)	> 100	> 100 µM (inactive)	89.5 µM (inactive)	> 100 µM (inactive)	> 100 µM (inactive)	> 100 µM (inactive)	> 100 µM (inactive)	> 100 µM (inactive)	> 100 µM (inactive)
CC[n+]1c(/C=C/c2ccc(N(CCCl)CCCl)cc2)ccc2cc(Br)ccc21	1.84 µM (inactive)	3.52 µM (inactive)	1.01 µM (active)	0.361 µM (active)	2.65 µM (inactive)	1.31 µM (inactive)	2.23 µM (inactive)	0.246 µM (active)	14.9	1.13 µM (inactive)	3.52 µM (inactive)	1.46 µM (inactive)	1.38 µM (inactive)	1.06 µM (active)	1.19 µM (inactive)	3.17 µM (inactive)	2.65 µM (inactive)
CSc1cnc2ccccc2c1Sc1cn(C)c2ccccc2c1=O	30.3 µM (inactive)	29.3 µM (inactive)	34.8 µM (inactive)	7.82 µM (inactive)	22.6 µM (inactive)	7.14 µM (inactive)	17.6 µM (inactive)	16 µM (inactive)	35.8	> 100 µM (inactive)	8.17 µM (inactive)	12.6 µM (inactive)	70.8 µM (inactive)	12 µM (inactive)	21.9 µM (inactive)	> 100 µM (inactive)	13.2 µM (inactive)
Cn1c2c(c3ccccc31)CCN(CCN1CCN(c3ccccc3)CC1)C2=O	68.2 µM (inactive)	> 100 µM (inactive)		> 100 µM (inactive)	> 100 µM (inactive)	> 100 µM (inactive)	> 100 µM (inactive)	> 100 µM (inactive)	> 100		> 100 µM (inactive)			31.2 µM (inactive)	> 100 µM (inactive)	> 100 µM (inactive)	> 100 µM (inactive)
O=C(/C=C/c1cccc2ccccc12)c1ccccc1Cl	14 µM (inactive)	15.1 µM (inactive)	15.1 µM (inactive)	5.57 µM (inactive)		11.6 µM (inactive)	21.4 µM (inactive)	2.65 µM (inactive)	6.53	16.4 µM (inactive)	25.8 µM (inactive)	4.35 µM (inactive)	15.2 µM (inactive)	13 µM (inactive)	14.1 µM (inactive)	17.5 µM (inactive)	13.5 µM (inactive)
O=C1C2c3[nH]c4ccccc4c3C3CCC(c4ccccc4)CC3C2C(=O)N1c1ccccc1 (stereo not drawn)	> 100 µM (inactive)	> 100 µM (inactive)	58.5 µM (inactive)	55.1 µM (inactive)	> 100 µM (inactive)	> 100 µM (inactive)	> 100 µM (inactive)	24.3 µM (inactive)	> 100	36.8 µM (inactive)	> 100 µM (inactive)	92.5 µM (inactive)	> 100 µM (inactive)		> 100 µM (inactive)	> 100 µM (inactive)	> 100 µM (inactive)
